These results are taken from patent US4812465A, “Triazole derivatives for use as antimycotic agents” (CL Pharma Aktiengesellschaft, priority 1986, dated 1989).

Structures are written as SMILES. In brackets after ≈: the same amount, converted by molar mass. Several values for one entry are separate records, joined by “and”; a condition that tells them apart may be missing. Equal values may be shown once.

Common to all, as to test: In vitro determination of minimum inhibitory concentration (MIC), serial dilution
What all share (type): cell-based

One series concerns Mucor mucedo plus. The following applies: Mucor mucedo, 336 h, pH 6, Mucor mucedo plus; pH 6.0, 22° C., 14 days. The method, then:
(§1) The antimycotic activities of the compounds were measured by in vitro determination of the minimum inhibitory concentration (MIC) for yeasts, molds and dermatophytes.
(§2) 6 dermatophytes, 2 yeasts and 4 molds were used for testing with fungi, as follows:
(§3) The minimum inhibitory concentration (MIC) was determined in serial dilution tests in test tubes. The volume of the liquid nutrient medium in each test tube was 4.5 ml.
(§4) The substances were dissolved in DMSO and diluted with sterile distilled water to 10 concentrations (100, 50, 25, 12.5, 6.25, 3.12, 1.56, 0.78, 0.39 and 0.19 μg/ml). 0.5 ml of each of these dilution steps was added to liquid nutrient medium. Thus, a constant concentration of solvent in all the nutrient media was ensured, irrespective of the active compound concentration.
(§5) A comparison solution which contained only the solvent in appropriate concentration was included when carrying out each of the tests.
(§6) The individual strains were maintained on Sabouraud/beerwort agar slants and, before they were used in a test, they underwent a passage on a modified Sabouraud liquid nutrient medium. The strains were then harvested, washed and converted into a suspension of McFaerland 3 in the case of yeasts and molds and of McFaerland 4-5 in the case of dermatophytes.
(§7) The amount of material inoculated (inoculum) was 100 μl/test tube (inoculated densities: yeasts about 10^3 /ml, molds about 10^4 /ml, dermatophytes about 10^4 /ml). The pH of the liquid nutrient medium was 6.0. After inoculation had taken place the fungi were incubated at 22° C. for 14 days.
(§8) The MIC was then determined. The concentration step at which growth was no longer visible on macroscopic inspection was used for the determination of the MIC. The comparison substance used was 1-(2-(2,4-dichlorophenyl)-2-(2,4-dichlorophenylmethoxy)ethyl)-1H-imidazole(compound A).

The subject of another series is Aspergillus fumigatus. As to conditions: 20160 min, pH 6. Here is the method: as §1, §2, §3, §4, §5, §6, §7, §8
A further series has as its system Absidia ramosa. As to conditions: pH 6.0, 22° C., 14 days; for MIC: Lichtheimia ramosa, 336 h, pH 6, Absidia ramosa. The method, then:
as §1, §2, §3, §4, §5, §6, §7, §8

In the next series the test system is Microsporum gypseum. The following applies: Nannizzia gypsea, 336 h, pH 6, Microsporum gypseum; pH 6.0, 22° C., 14 days; read-out: MIC Mi.gyp. The method, then: as §1, §2, §3, §4, §5, §6, §7, §8
The subject of a further series is Candida albicans. The following applies: 336 h, pH 6, Candida albicans, pH 6.0, 22° C., 14 days, read-out: MIC C.alb. Here is the method: as §1, §2, §3, §4, §5, §6, §7, §8
The test system of series [1] is Trichophyton mentagrophytes. As to conditions: pH 6.0, 22° C., 14 days; for MIC: 336 h, pH 6, Trichophyton mentagrophytes. Here is the method: as §1, §2, §3, §4, §5, §6, §7, §8
The next series has as its system Candida tropicalis. The following applies: 336 h, pH 6, Candida tropicalis, pH 6.0, 22° C., 14 days, read-out: MIC C.trop. The method, then: as §1, §2, §3, §4, §5, §6, §7, §8
In a further series the test system is Trichophyton rubrum. As to conditions: 336 h, pH 6, Trichophyton rubrum, pH 6.0, 22° C., 14 days. Here is the method: as §1, §2, §3, §4, §5, §6, §7, §8
For the next series, the system named is Epidermophyton floccosum. As to conditions: pH 6.0, 22° C., 14 days; for MIC: 336 h, pH 6, Epidermophyton floccosum. Here is the method: as §1, §2, §3, §4, §5, §6, §7, §8
Another series relates to Microsporum canis. As to conditions: pH 6.0, 22° C., 14 days; for MIC: 336 h, pH 6, Microsporum canis. Here is the method: as §1, §2, §3, §4, §5, §6, §7, §8
In another series the test system is Trichophyton verrucosum. The following applies: 336 h, pH 6, Trichophyton verrucosum, pH 6.0, 22° C., 14 days. The method, then: as §1, §2, §3, §4, §5, §6, §7, §8
A further series relates to Mucor mucedo minus. As to conditions: Mucor mucedo, 336 h, pH 6, Mucor mucedo minus; pH 6.0, 22° C., 14 days. The method, then: as §1, §2, §3, §4, §5, §6, §7, §8

As usually defined, the MIC is the smallest concentration in the dilution series that meets the test's criterion for growth inhibition. Take `Clc1ccc(SCCNC(Cn2ccnc2)c2ccc(Cl)cc2Cl)cc1` (centres unmarked) [Compound 34]: the MIC amounted to 3.12 µg/mL in the series with Mucor mucedo plus; 6.25 µg/mL (≈ 14.6 µM) against Absidia ramosa; 0.78 µg/mL (≈ 1.83 µM) in the series on Microsporum gypseum; 3.12 µg/mL (≈ 7.31 µM) with Candida albicans; 0.78 µg/mL (≈ 1.83 µM) in [1]; 3.12 µg/mL (≈ 7.31 µM) in the series on Candida tropicalis. Moreover, the MIC against Trichophyton rubrum came out at 0.78 µg/mL (≈ 1.83 µM); with Epidermophyton floccosum, 0.78 µg/mL (≈ 1.83 µM); against Microsporum canis, 0.78 µg/mL (≈ 1.83 µM); against Trichophyton verrucosum, 0.78 µg/mL (≈ 1.83 µM); in the series on Mucor mucedo minus, 3.12 µg/mL (≈ 7.31 µM). Moreover, the “MIC Asp.fu.” value against Aspergillus fumigatus is on record as 6,25 μg/ml.

`Clc1ccc(C(Cn2cncn2)NCCSc2ccc(Br)cc2)c(Cl)c1` (centres unmarked) [Compound 36]: the minimum inhibitory concentration (MIC) with Mucor mucedo plus stood at 12.5 µg/mL; in the series with Absidia ramosa, 100 µg/mL (≈ 212 µM); in the series with Microsporum gypseum it was 6.25 µg/mL (≈ 13.2 µM); in the series on Candida albicans, 25 µg/mL (≈ 52.9 µM); in series [1] it was 25 µg/mL (≈ 52.9 µM); in the series on Candida tropicalis, 12.5 µg/mL (≈ 26.5 µM). In addition, the MIC against Trichophyton rubrum stood at 6.25 µg/mL (≈ 13.2 µM); against Epidermophyton floccosum, 12.5 µg/mL (≈ 26.5 µM); in the series with Microsporum canis, 100 µg/mL (≈ 212 µM); against Trichophyton verrucosum, 12.5 µg/mL (≈ 26.5 µM); in the series with Mucor mucedo minus, 50 µg/mL (≈ 106 µM). The “MIC Asp.fu.” value in the series with Aspergillus fumigatus turned out to be 100 µg/mL (≈ 212 µM).

On to `Clc1ccc(C(Cn2ccnc2)NCCSc2ccc(Br)cc2)c(Cl)c1` (centres unmarked) [Compound 37], for which the MIC is 6.25 µg/mL in the series with Mucor mucedo plus; 12.5 µg/mL (≈ 26.5 µM) against Absidia ramosa; 0.78 µg/mL (≈ 1.66 µM) in the series with Microsporum gypseum; 6.25 µg/mL (≈ 13.3 µM) in the series with Candida albicans; 1.56 µg/mL (≈ 3.31 µM) in [1]; 6.25 µg/mL (≈ 13.3 µM) with Candida tropicalis. The minimum inhibitory concentration (MIC) in the series with Trichophyton rubrum was determined as 1.56 µg/mL (≈ 3.31 µM); against Epidermophyton floccosum, 1.56 µg/mL (≈ 3.31 µM); in the series with Microsporum canis it was 6.25 µg/mL (≈ 13.3 µM); in the series with Trichophyton verrucosum, 1.56 µg/mL (≈ 3.31 µM); against Mucor mucedo minus it was 6.25 µg/mL (≈ 13.3 µM). Moreover, the “MIC Asp.fu.” value against Aspergillus fumigatus is recorded as 6,25 μg/ml.

For `COc1ccc(SCCNC(Cn2ccnc2)c2ccc(Cl)cc2Cl)cc1` (centres unmarked) [Compound 39], the MIC in the series on Mucor mucedo plus was 12.5 µg/mL; with Absidia ramosa, 25 µg/mL (≈ 59.2 µM); in the series with Microsporum gypseum, 6.25 µg/mL (≈ 14.8 µM); with Candida albicans, 25 µg/mL (≈ 59.2 µM); in series [1], 6.25 µg/mL (≈ 14.8 µM); in the series with Candida tropicalis, 12.5 µg/mL (≈ 29.6 µM). In addition, the minimal inhibitory concentration (MIC) with Trichophyton rubrum is 6.25 µg/mL (≈ 14.8 µM); in the series on Epidermophyton floccosum it was 12.5 µg/mL (≈ 29.6 µM); against Microsporum canis it was 12.5 µg/mL (≈ 29.6 µM); with Trichophyton verrucosum, 6.25 µg/mL (≈ 14.8 µM); against Mucor mucedo minus, 12.5 µg/mL (≈ 29.6 µM). Further, the “MIC Asp.fu.” value in the series on Aspergillus fumigatus is given as 12,5 μg/ml.

Regarding `Clc1ccc(C(Cn2ccnc2)NCCSc2ccc3ccccc3c2)c(Cl)c1` (centres unmarked) [Compound 40], the minimum inhibitory concentration (MIC) in the series on Mucor mucedo plus is 12.5 µg/mL; against Absidia ramosa it was 12.5 µg/mL (≈ 28.3 µM); with Microsporum gypseum it was 3.12 µg/mL (≈ 7.05 µM); in the series on Candida albicans it was 6.25 µg/mL (≈ 14.1 µM); in series [1] it was 6.25 µg/mL (≈ 14.1 µM); in the series with Trichophyton rubrum it was 3.12 µg/mL (≈ 7.05 µM). Moreover, the MIC against Trichophyton verrucosum came to 3.12 µg/mL (≈ 7.05 µM); against Mucor mucedo minus it was 25 µg/mL (≈ 56.5 µM). The “MIC Ep.flo” value against Epidermophyton floccosum was 3,12 μg/ml and 6,25 μg/ml.

`COc1ccc(OCCCNC(Cn2ccnc2)c2ccc(Cl)cc2Cl)cc1` (centres unmarked) [Compound 67]: the “MIC Abs.ra.” value with Absidia ramosa (Absidia ramosa) is 50,0 μg/ml. Besides, the minimal inhibitory concentration (MIC) stood at 100 µg/mL (≈ 238 µM) in the series with Absidia ramosa; 25 µg/mL (≈ 59.5 µM) in the series on Microsporum gypseum; 100 µg/mL (≈ 238 µM) in [1]; 50 µg/mL (≈ 119 µM) with Candida tropicalis; 100 µg/mL (≈ 238 µM) in the series with Epidermophyton floccosum; 50 µg/mL (≈ 119 µM) with Microsporum canis. This molecule showed an MIC with Trichophyton verrucosum of 6.25 µg/mL (≈ 14.9 µM). Moreover, in series [1], the “MIC Tri.me.” value was 50,0 μg/ml. Moreover, in the series on Epidermophyton floccosum, the “MIC Ep.flo” value is on record as 50,0 μg/ml. In addition, the “MIC Mi.can” value in the series on Microsporum canis is 25,0 μg/ml.
